The values that follow come from ChEMBL document CHEMBL5096204 (J Med Chem, 2021).

The nature of data set [1]: Lipophilicity, logD of the compound in octanol/buffer at pH 7.4 by shake flask method. The format is physicochemical.
Data set [2] can be described thus: Dissociation constant, pKa of the compound. Format: physicochemical.
Data set [3] in a line: Volume of distribution in SCID mouse at 5 umol/kg, iv. The format is ADME. The settings on record: in vivo, dose 5 µmol/kg.
Data set [4] can be described thus: Volume of distribution in Han-wistar rat at […], iv. Format: ADME. The settings on record: in vivo, dose 1.5 µmol/kg.
Data set [5] can be described thus: Apparent permeability of compound from apical to basolateral side in human Caco-2 cells. The format is ADME, cell-based. In general terms: Passage across Caco-2 layers is used to estimate intestinal permeability.
A short description of data set [6]: Drug metabolism in SCID mouse plasma assessed as 1-Isopropyl-5-(2-(piperidin-4-yl)-1H-pyrrolo[2,3-b]pyridin-4-yl)-pyridin-2(1H)-one metabolite formation at 0.5 mg/kg, iv administered as cassette dose. The format is ADME, organism-based. The settings on record: in vivo.

The term logD denotes lipophilicity at a set pH, counting ionised and neutral species. Higher therefore signals higher lipophilicity. By pKa is commonly meant the pH at which an ionisable group is half protonated. Read a low pKa as a group that gives up its proton readily. Usually Vd stands for a proportionality between amount in the body and measured concentration, not a real space. The molecule `COc1cc(F)ccc1-c1ccnc2[nH]c(C3CCNCC3)cc12` had a logD in data set [1] of 1.2. The molecule also came in with a pKa in data set [2] of 10.2. Also, the Vd in data set [3] was found to be 14 L/kg; in data set [4], 10 L/kg.

In data set [1], `COc1cc(F)ccc1-c1ccnc2[nH]c(C3CCN(C)CC3)cc12` came in with a logD of 2.6. The pKa in data set [2] was 9. The Vd in data set [4] was 5.2 L/kg.

`CN(C)C(=O)CN1CCC(c2cc3c(-c4ccc(=O)n(C5CCC5)c4)ccnc3[nH]2)CC1` returned a pH-dependent lipophilicity (logD) in data set [1] of 1.9. Same read-out and setting: in the case of `COc1cc(F)ccc1-c1ccnc2[nH]c(-c3ccc(CN4CCOCC4)cc3)cc12` it was 4.4.

In general, Papp A→B refers to the apparent permeability from the apical to the basolateral side of a cell layer. Molecule `COc1cc(C(=O)N2CCCC2)ccc1-c1ccnc2[nH]c(C3CCNCC3)cc12` displayed a pKa in data set [2] of 10.2. Moreover, the Papp A→B in data set [5] was less than 0.01 ×10⁻⁶ cm/s. The molecule further displayed a Vd in data set [4] of 5.8 L/kg. `COCCn1cc(-c2ccnc3[nH]c(C4CCN(CC(=O)N(C)C)CC4)cc23)ccc1=O`: the pH-dependent lipophilicity (logD) in data set [1] was 1.1. Consider `COc1cc(C(=O)N2CCCC2)ccc1-c1ccnc2[nH]c(-c3ccc(CN4CCOCC4)cc3)nc12`, for which, in data set [1], the logD is 2.6. In data set [1], `COc1cc(F)ccc1-c1ccnc2[nH]c(C3CCN(C(C)=O)CC3)cc12` displayed a logD of 3.4. In addition, the Vd in data set [4] was found to be 1.7 L/kg. In data set [1], `COc1cc(=O)n(C)cc1-c1ccnc2[nH]c(C3CCN(CC(=O)N(C)C)CC3)cc12` showed a logD of 0.7. As for `CCn1cc(-c2ccnc3[nH]c(C4CCN(CC(=O)N(C)C)CC4)cc23)ccc1=O`, in data set [1], the logD was found to be 1.2. As to `CNC(=O)CN1CCC(c2cc3c(-c4ccc(=O)n(C(C)C)c4)ccnc3[nH]2)CC1`, in data set [1], the log distribution coefficient (logD) is 2.2. The molecule also displayed a pKa in data set [2] of 6.9. In addition, the distribution volume (Vd) in data set [4] stood at 2.6 L/kg. `CC(C)n1cc(-c2ccnc3[nH]c(C4CCN(CC(=O)N(C)C)CC4)cc23)cnc1=O`: the logD in data set [1] is 0.4. The molecule further came in with a Vd in data set [4] of 2.9 L/kg. With `COc1cc(F)ccc1-c1ccnc2[nH]c(C3CCN(CCO)CC3)cc12`, the logD in data set [1] was 2.4. Further, in data set [2], the pKa worked out at 8.5. In data set [4], this molecule displayed a distribution volume (Vd) of 12 L/kg.

`CC(=O)N1CCC(c2cc3c(-c4ccc(=O)n(C(C)C)c4)ccnc3[nH]2)CC1` yielded a logD in data set [1] of 2.1.

Regarding `Cc1nc2ccc(-c3ccnc4[nH]c(C5CCN(CC(=O)N(C)C)CC5)cc34)cc2n1C(C)C`, the logD in data set [1] stood at 3.1. `COc1cc(F)ccc1-c1ccnc2[nH]c(C3CCOCC3)cc12` showed a pH-dependent lipophilicity (logD) in data set [1] of 3.9. `COc1cc(F)ccc1-c1ccnc2[nH]c(-c3ccc(CN4CCOCC4)cc3)nc12` displayed a log distribution coefficient (logD) in data set [1] of 3.7. In turn, `COc1cc(F)ccc1-c1ccnc2[nH]c(C3CCC(NC(C)=O)C3)nc12` (centres undefined) had a logD in data set [1] of 2.3. With `CC(C)n1cc(-c2ccnc3[nH]c(C4CCNCC4)cc23)ccc1=O`, the logD in data set [1] was -0.2. Molecule `CC(C)n1cc(-c2ccnc3[nH]c(C4CCN(Cc5cccs5)CC4)cc23)ccc1=O` gave a logD in data set [1] of 3.4. This molecule had a pKa in data set [2] of 6.5. The molecule also gave a Vd in data set [4] of 1.6 L/kg. On to `COc1cc(F)ccc1-c1ccnc2[nH]c(C3CCNCC3)nc12`, for which, in data set [1], the logD amounted to 0. In turn, `COc1cc(C(=O)N2CCCC2)ccc1-c1ccnc2[nH]c(C3CCN(CCO)CC3)cc12` registered a logD in data set [1] of 1.3.

Molecule `CN(C)C(=O)CN1CCC(c2cc3c(-c4ccc(=O)n(C5CCOCC5)c4)ccnc3[nH]2)CC1` registered a logD in data set [1] of 1.1.

In data set [1], `COc1cc(F)ccc1-c1ccnc2[nH]c(C3CCN(CC(=O)N(C)C)CC3)cc12` yielded a logD of 2.9. The same molecule displayed a pKa in data set [2] of 8. This molecule had a Vd in data set [4] of 2.3 L/kg. `CC(C)n1cc(-c2ccnc3[nH]c(C4CCN(CC(=O)N5CCCCC5)CC4)cc23)ccc1=O` had a pKa in data set [2] of 7.8. Further, the Vd in data set [3] came out at 1.5 L/kg; in data set [4], 8.1 L/kg. For the same molecule, in data set [6], the Drug metabolism entry was “Metabolite_Notdetected”. In data set [2], `CC(C)n1cc(-c2ccnc3[nH]c(C4CCN(CC(=O)N(C)C)CC4)cc23)ccc1=O` gave a pKa of 7.9. In addition, the Vd in data set [4] came to 5.9 L/kg.

In data set [1], `CSCCn1cc(-c2ccnc3[nH]c(C4CCN(CC(=O)N(C)C)CC4)cc23)ccc1=O` came in with a logD of 1.7. On to `CN(C)C(=O)CN1CCC(c2cc3c(-c4ccc(=O)n(CCC5CCOCC5)c4)ccnc3[nH]2)CC1`, for which the pH-dependent lipophilicity (logD) in data set [1] is 1.5.

`COc1cc(C(=O)N2CCCC2)ccc1-c1ccnc2[nH]c(C3CCOCC3)cc12` registered a logD in data set [1] of 3. The Vd in data set [4] came out at 0.8 L/kg. For `CC(C)n1cc(-c2ccnc3[nH]c(C4CCN(CC(F)F)CC4)cc23)ccc1=O`, the logD in data set [1] came out at 2.9. The molecule also returned a pKa in data set [2] of 6. Moreover, in data set [4], the Vd stood at 1.8 L/kg. As for `O=C(c1ccc(-c2ccnc3[nH]c(-c4ccc(CN5CCOCC5)cc4)nc23)cc1)N1CCCC1`, the logD in data set [1] is 3.2. The molecule `CC(C)Cn1cc(-c2ccnc3[nH]c(C4CCN(CC(=O)N(C)C)CC4)cc23)ccc1=O` displayed a logD in data set [1] of 2. For `CC(C)n1nc(-c2ccnc3[nH]c(C4CCN(CC(=O)N(C)C)CC4)cc23)ccc1=O`, the logD in data set [1] was 2. In data set [2], this molecule registered a pKa of 7.6. In data set [4], this molecule had a distribution volume (Vd) of 2.9 L/kg. Molecule `CN(C)C(=O)CN1CCC(c2cc3c(-c4ccc(=O)n(CC5CCOCC5)c4)ccnc3[nH]2)CC1` registered a logD in data set [1] of 1.4. Molecule `COc1cc(C(=O)N2CCCC2)ccc1-c1ccnc2[nH]c(C3CCN(C(C)=O)CC3)cc12` had a logD in data set [1] of 2.5. Also, the Vd in data set [4] was 0.9 L/kg.

`CN(C)C(=O)CN1CCC(c2cc3c(-c4ccc(=O)n(C)c4)ccnc3[nH]2)CC1`: in data set [1], the logD was 1.1. `CC(C)n1cc(-c2ccnc3[nH]c(C4CCN(CC(=O)N5CCCC5)CC4)cc23)ccc1=O`: the pKa in data set [2] was found to be 7.8. For the same molecule, the Vd in data set [3] stood at 1.2 L/kg; in data set [4], 3.9 L/kg. The Drug metabolism result in data set [6] is recorded as “Metabolite_Notdetected”. `COc1cc(F)ccc1-c1ccnc2[nH]c([C@H]3CC[C@H](NC(C)=O)CC3)cc12`: the logD in data set [1] is 3.8. This molecule gave a Vd in data set [4] of 2.5 L/kg.
